The test system of one experiment is TMD8 cells. As to the kind of experiment: Resazurin cell viability (proliferation) assay in TMD8 DLBCL cells. The experiment is classed as cell-based. The settings on record: Homo sapiens, TMD8 cells (BTK dependent), 72 h, 50% growth inhibition vs vehicle, read-out: TMD8 Prol GI50. An outline of the steps:
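TMD8 cells were seeded at 1×10^4 per well and treated 3 h later with compound, in an 8-point 1:4 dilution series starting at 1 μM, or DMSO, for 72 h at 37° C. Resazurin was added at 13 μg/ml final for the last 2 h, and fluorescence was read at ex 530/em 600 nm. GI50 versus vehicle was derived by curve fitting from triplicates.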
In general terms: Resazurin is reduced to fluorescent resorufin, in cell work by metabolically active cells.

In another experiment the test system is OCI-LY3 cells. As to the kind of experiment: Resazurin cell viability (proliferation) assay in OCI-LY3 DLBCL cells. The experiment is classed as cell-based. The settings on record: Homo sapiens, OCI-LY3 cells (BTK independent), 72 h, 50% growth inhibition vs vehicle, read-out: OCI-LY3 Prol GI50. An outline of the steps:
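Cells were seeded at 1×10^4 per well and dosed 3 h later: 8-point 1:4 dilutions from 10 μM (OCI-LY3), in triplicate, 72 h at 37 °C. Resazurin (13 μg/ml final) was added for the last 2 h and fluorescence read at 530/600 nm. GI50 is relative to DMSO vehicle, typically from ≥2 independent experiments.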

SMILES strings stand for the structures.

In general, GI50 refers to the concentration at which growth is held to half of that of the control. With `Cc1c(NC(=O)c2ccc(C(C)(C)O)cc2F)cc(F)cc1-c1ncnc2[nH]c(-c3ccc(CCN4CCC5(CC4)CCN(C(=O)c4ccc(F)c(N6CCC(=O)NC6=O)c4)CC5)cc3)cc12` [Compound 47, N-(3-(6-(4-(2-(9-(3-(2,4-dioxotetrahydropyrimidin-1(2H)-yl)-4-fluorobenzoyl)-3,9-diazaspiro[5.5]undecan-3-yl)ethyl)phenyl)-7H-pyrrolo[2,3-d]pyrimidin-4-yl)-5-fluoro-2-methylphenyl)-2-fluoro-4-(2-hydroxypropan-2-yl)benzamide], the GI50 in the experiment on TMD8 cells was determined as 0.53 nM; with OCI-LY3 cells, 4580 nM.

`COc1ccc(C(=O)N2CCC(OC3CCN(Cc4ccc(-c5cc6c(-c7cc(F)cc(NC(=O)c8ccc(C(C)(C)O)cc8F)c7C)ncnc6[nH]5)cc4)CC3)CC2)cc1N1CCC(=O)NC1=O` [Compound 8, N-(3-(6-(4-((4-((1-(3-(2,4-dioxotetrahydropyrimidin-1(2H)-yl)-4-methoxybenzoyl)piperidin-4-yl)oxyl)piperidin-1-yl)methyl)phenyl)-7H-pyrrolo[2,3-d]pyrimidin-4-yl)-5-fluoro-2-methylphenyl)-2-fluoro-4-(2-hydroxypropan-2-yl)benzamide]: the GI50 in the experiment on TMD8 cells was determined as 0.39 nM; with OCI-LY3 cells, 4850 nM.

As for `COc1ccc(C(=O)N2CCN(C(=O)N3CCN(Cc4ccc(-c5cc6c(-c7cc(F)cc(NC(=O)c8ccc(C(C)(C)O)cc8F)c7C)ncnc6[nH]5)cc4)CC3)CC2)cc1N1CCC(=O)NC1=O` [Compound 22, N-(3-(6-(4-((4-(4-(3-(2,4-Dioxotetrahydropyrimidin-1(2H)-yl)-4-methoxybenzoyl)piperazine-1-carbonyl)piperazin-1-yl)methyl)phenyl)-7H-pyrrolo[2,3-d]pyrimidin-4-yl)-5-fluoro-2-methylphenyl)-2-fluoro-4-(2-hydroxypropan-2-yl)benzamide], the values for the GI50 in the experiment on TMD8 cells and in the experiment with OCI-LY3 cells were 4.82 nM and 4110 nM, respectively.

As for `Cc1c(NC(=O)c2ccc(C(C)(C)O)cc2F)cc(F)cc1-c1ncnc2[nH]c(-c3ccc(CCN4CCC5(CC4)CCN(C(=O)c4cccc(N6CCC(=O)NC6=O)c4)CC5)cc3)cc12` [Compound 12, N-(3-(6-(4-(2-(9-(3-(2,4-Dioxotetrahydropyrimidin-1(2H)-yl)benzoyl)-3,9-diazaspiro[5,5]undecan-3-yl)ethyl)phenyl)-7H-pyrrolo[2,3-d]pyrimidin-4-yl)-5-fluoro-2-methylphenyl)-2-fluoro-4-(2-hydroxypropan-2-yl)benzamide], the GI50 in the experiment on TMD8 cells is 0.93 nM; with OCI-LY3 cells, 3840 nM.

Take `Cc1ccc(C(=O)N2CCC3(CCN(Cc4ccc(-c5cc6c(-c7cc(F)cc(NC(=O)c8ccc(C(C)(C)O)cc8F)c7C)ncnc6[nH]5)cc4)CC3)CC2)cc1N1CCC(=O)NC1=O` [Compound 27, N-(3-(6-(4-((9-(3-(2,4-Dioxotetrahydropyrimidin-1(2H)-yl)-4-methylbenzoyl)-3,9-diazaspiro[5.5]undecan-3-yl)methyl)phenyl)-7H-pyrrolo[2,3-d]pyrimidin-4-yl)-5-fluoro-2-methylphenyl)-2-fluoro-4-(2-hydroxypropan-2-yl)benzamide]: the values for the GI50 with TMD8 cells and in the experiment on OCI-LY3 cells were 0.4 nM and 4080 nM, respectively.

As to `COc1ccc(C(=O)NCCN2CCOC3(CCN(Cc4ccc(-c5cc6c(-c7cc(F)cc(NC(=O)c8ccc(C(C)(C)O)cc8F)c7C)ncnc6[nH]5)cc4)CC3)C2)cc1N1CCC(=O)NC1=O` [Compound 39, N-(3-(6-(4-((4-(2-(3-(2,4-dioxotetrahydropyrimidin-1(2H)-yl)-4-methoxybenzamido)ethyl)-1-oxa-4,9-diazaspiro[5.5]undecan-9-yl)methyl)phenyl)-7H-pyrrolo[2,3-d]pyrimidin-4-yl)-5-fluoro-2-methylphenyl)-2-fluoro-4-(2-hydroxypropan-2-yl)benzamide], the GI50 in the experiment with TMD8 cells was determined as 4.79 nM; in the experiment with OCI-LY3 cells, 7160 nM.

On to `COc1ccc(C(=O)N2CCC3(CC2)CCN(C(C)(C)Cc2ccc(-c4cc5c(-c6cc(F)cc(NC(=O)c7ccc(C(C)(C)O)cc7F)c6C)ncnc5[nH]4)cc2)CC3)cc1N1CCC(=O)NC1=O` [Compound 20, N-(3-(6-(4-(2-(9-(3-(2,4-Dioxotetrahydropyrimidin-1(2H)-yl)-4-methoxybenzoyl)-3,9-diazaspiro[5.5]undecan-3-yl)-2-methylpropyl)phenyl)-7H-pyrrolo[2,3-d]pyrimidin-4-yl)-5-fluoro-2-methylphenyl)-2-fluoro-4-(2-hydroxypropan-2-yl)benzamide], for which the GI50 in the experiment with TMD8 cells turned out to be 0.53 nM; with OCI-LY3 cells it was 7900 nM.

With `COc1ccc(C(=O)NCCN2CCC3(CC2)CCN(Cc2ccc(-c4cc5c(-c6cc(F)cc(NC(=O)c7ccc(C(C)(C)O)cc7F)c6C)ncnc5[nH]4)cc2)CC3)cc1N1CCC(=O)NC1=O` [Compound 44, N-(3-(6-(4-((9-(2-(3-(2,4-dioxotetrahydropyrimidin-1(2H)-yl)-4-methoxybenzamido)ethyl)-3,9-diazaspiro[5.5]undecan-3-yl)methyl)phenyl)-7H-pyrrolo[2,3-d]pyrimidin-4-yl)-5-fluoro-2-methylphenyl)-2-fluoro-4-(2-hydroxypropan-2-yl)benzamide], the GI50 in the experiment with TMD8 cells amounted to 3.74 nM; in the experiment on OCI-LY3 cells, 3050 nM.

Consider `Cc1c(NC(=O)c2ccc(C(C)(C)O)cc2F)cc(F)cc1-c1ncnc2[nH]c(-c3ccc(CN4CCC5(CC4)CCN(C(=O)c4ccc(F)c(N6CCC(=O)NC6=O)c4)CC5)cc3)cc12` [Compound 14, N-(3-(6-(4-((9-(3-(2,4-Dioxotetrahydropyrimidin-1(2H)-yl)-4-fluorobenzoyl)-3,9-diazaspiro[5.5]undecan-3-yl)methyl)phenyl)-7H-pyrrolo[2.3-d]pyrimidin-4-yl)-5-fluoro-2-methylphenyl)-2-fluoro-4-(2-hydroxypropan-2-yl)benzamide], for which the GI50 in the experiment on TMD8 cells amounted to 1.02 nM; in the experiment with OCI-LY3 cells it was 5980 nM.

With `COc1ccc(C(=O)N2CCC(CN3CCC(Oc4ccc(-c5cc6c(-c7cc(F)cc(NC(=O)c8ccc(C(C)(C)O)cc8F)c7C)ncnc6[nH]5)cc4)CC3)CC2)cc1N1CCC(=O)NC1=O` [Compound 19, N-(3-(6-(4-((1-((1-(3-(2,4-Dioxotetrahydropyrimidin-1(2H)-yl)-4-methoxybenzoyl)piperidin-4-yl)methyl)piperidin-4-yl)oxyl)phenyl)-7H-pyrrolo[2,3-d]pyrimidin-4-yl)-5-fluoro-2-methylphenyl)-2-fluoro-4-(2-hydroxypropan-2-yl)benzamide], the GI50 in the experiment on TMD8 cells was 0.45 nM; in the experiment on OCI-LY3 cells, 4460 nM.

In the case of `Cc1c(NC(=O)c2ccc(C(C)(C)O)cc2F)cc(F)cc1-c1ncnc2[nH]c(-c3ccc(COC4CCN(CCC5CCN(C(=O)c6ccc(F)c(N7CCC(=O)NC7=O)c6)CC5)CC4)cc3)cc12` [Compound 6, N-(3-(6-(4-(((1-(2(1-(3-(2,4-dioxotetrahydropyrimidin-1(2H)-yl)-4-fluorobenzoyl)piperidin-4-yl)ethyl)piperidin-4-yl)oxyl)methyl)phenyl)-7H-pyrrolo[2,3-d]pyrimidin-4-yl)-5-fluoro-2-methylphenyl)-2-fluoro-4-(2-hydroxypropan-2-yl)benzamide], the GI50 turned out to be 0.53 nM in the experiment on TMD8 cells and 3430 nM in the experiment on OCI-LY3 cells.

In the case of `COc1ccc(C(=O)N2CCC(OC3CCN(CCc4ccc(-c5cc6c(-c7cc(F)cc(NC(=O)c8ccc(C(C)(C)O)cc8F)c7C)ncnc6[nH]5)cc4)CC3)CC2)cc1N1CCC(=O)NC1=O` [Compound 34, N-(3-(6-(4-(2-(4-((1-(3-(2,4-Dioxotetrahydropyrimidin-1(2H)-yl)-4-methoxybenzoyl)piperidin-4-yl)oxyl)piperidin-1-yl)ethyl)phenyl)-7H-pyrrolo[2,3-d]pyrimidin-4-yl)-5-fluoro-2-methylphenyl)-2-fluoro-4-(2-hydroxypropan-2-yl)benzamide], the GI50 was 1.7 nM in the experiment with TMD8 cells and more than 10000 nM in the experiment on OCI-LY3 cells.

Turning to `Cc1cc(F)c(C(=O)NCCCCCNCc2ccc(-c3cc4c(-c5cc(F)cc(NC(=O)c6ccc(C(C)(C)O)cc6F)c5C)ncnc4[nH]3)cc2)cc1N1CCC(=O)NC1=O` [Compound 29, 5-(2,4-Dioxotetrahydropyrimidin-1(2H)-yl)-2-fluoro-N—(S-((4-(4-(5-fluoro-3-(2-fluoro-4-(2-hydroxypropan-2-yl)benzamido)-2-methylphenyl)-7H-pyrrolo[2,3-d]pyrimidin-6-yl)benzyl)amino)pentyl)-4-methylbenzamide], the GI50 with TMD8 cells was determined as 2.25 nM; with OCI-LY3 cells it was 8620 nM.

For the compound `Cc1ccc(C(=O)N2CCC3(CCN(CCc4ccc(-c5cc6c(-c7cc(F)cc(NC(=O)c8ccc(C(C)(C)O)cc8F)c7C)ncnc6[nH]5)cc4)CC3)CC2)cc1N1CCC(=O)NC1=O` [Compound 5, N-(3-(6-(4-(2-(9-(3-(2,4-Dioxotetrahydropyrimidin-1(2H)-yl)-4-methylbenzoyl)-3,9-diazaspiro[5.5]undecan-3-yl)ethyl)phenyl)-7H-pyrrolo[2,3-d]pyrimidin-4-yl)-5-fluoro-2-methylphenyl)-2-fluoro-4-(2-hydroxypropan-2-yl)benzamide], the GI50 in the experiment on TMD8 cells came to 0.47 nM; in the experiment on OCI-LY3 cells, 6550 nM.

Regarding `COc1ccc(C(=O)N2CCC3(CCN(CCc4ccc(-c5cc6c(-c7cc(F)cc(NC(=O)c8ccc(C(C)(C)O)cc8F)c7C)ncnc6[nH]5)cc4)CC3)CC2)cc1N1CCC(=O)NC1=O` [Compound 31, N-(3-(6-(4-(2-(9-(3-(2,4-Dioxotetrahydropyrimidin-1(2H)-yl)-4-methoxybenzoyl)-3,9-diazaspiro[5.5]undecan-3-yl)ethyl)phenyl)-7H-pyrrolo[2,3-d]pyrimidin-4-yl)-5-fluoro-2-methylphenyl)-2-fluoro-4-(2-hydroxypropan-2-yl)benzamide], the GI50 in the experiment on TMD8 cells is 0.46 nM; in the experiment on OCI-LY3 cells, 5640 nM.

The values above are taken from patent US12441733B2, “Substituted 2,4-dioxotetrahydropyrimidines as intermediates in the synthesis of bruton's tyrosine kinase inhibitors” (Novartis AG, priority 2018, dated 2025).
